A value given as a limit tells only on which side of the number the result lay.

One assay relates to HCC461. The assay is described as follows: cell viability assay in HCC461, compound alone. Format: cell-based. Particulars: HCC461, HCC461; Tables 6-9; read-out: IC50 (μM) in cell viability assay in HCC461.
Regarding `CN[C@@H](C)C(=O)N[C@@H](C(C)C)C(C)N[C@@H](CNC(=O)c1cccc(C(=O)N[C@H]2C[C@@H](C(=O)N[C@@H]3CCCc4ccccc43)N(C(=O)[C@@H](NC(=O)[C@H](C)NC)C(C)(C)C)C2)c1)C(=O)N[C@H](C)C(C)C` (stereo partly shown) [Compound 136], the 50% inhibitory concentration (IC50) is more than 30 µM.

In the case of `CN[C@@H](C)C(=O)N[C@H](C(=O)N1C[C@@H](NC(=O)c2cccc(C(=O)N[C@H]3C[C@@H](C(=O)N[C@H](C)C(C)C)N(C(=O)[C@@H](NC(=O)[C@H](C)NC)C(C)(C)C)C3)c2)C[C@H]1C(=O)N[C@@H]1CCCc2ccccc21)C(C)(C)C` [Compound 132], the IC50 stood at 0.017 µM.

On to `CN[C@@H](C)C(=O)N[C@H](C(=O)N[C@@H](CCCCNC(=O)c1cccc(C(=O)N[C@H]2CC(C(=O)N[C@H](C)c3ccccc3)N(C(=O)[C@@H](NC(=O)[C@H](C)NC)C(C)(C)C)C2)c1)C(=O)N[C@@H](C)C(C)C)C(C)C` (stereo partly shown) [Compound 162], for which the IC50 was more than 30 µM.

For the compound `CN[C@@H](C)C(=O)NC(C(=O)N1C[C@@H](NC(=O)c2cc(NC(=O)OCc3ccc([N+](=O)[O-])cc3)cc(C(=O)N[C@H]3C[C@@H](C(=O)N[C@@H]4CCCc5ccccc54)N(C(=O)[C@@H](NC(=O)[C@H](C)NC)C(C)(C)C)C3)c2)CC1C(=O)N[C@@H]1CCCc2ccccc21)C(C)(C)C` (stereo partly shown) [Compound 110], the half-inhibitory concentration (IC50) was found to be 0.059 µM.

Regarding `CN[C@@H](C)C(=O)N[C@H](C(=O)N1C[C@@H](NC(=O)CC[C@@H](NC(=O)[C@H](NC(=O)[C@@H](C)NC)C(C)C)C(=O)N[C@@H](C)C(C)C)C[C@H]1C(=O)N[C@H](C)C(C)C)C(C)(C)C` [Compound 160], the 50% inhibitory concentration (IC50) amounted to 29.4 µM.

`CN[C@@H](C)C(=O)N[C@@H](CCCCNC(=O)c1cccc(C(=O)N[C@H]2CCN(C(=O)[C@@H](NC(=O)[C@H](C)NC)C(C)(C)C)C2)c1)C(=O)N1CCC[C@H]1C(=O)N[C@@H]1CCCc2ccccc21` [Compound 135]: the IC50 amounted to 12.1 µM.

Take `CN[C@@H](C)C(=O)N[C@@H](CC#CC#CC[C@H](NC(=O)[C@H](C)NC)C(=O)N1CCCC[C@H]1C(=O)N[C@@H]1CCCc2ccccc21)C(=O)N1CCCC[C@H]1C(=O)N[C@@H]1CCCc2ccccc21` [Compound 87]: the IC50 worked out at 0.404 µM.

With `CN[C@@H](C)C(=O)N[C@@H](CCC(=O)O)C(=O)N1C[C@@H](NC(=O)c2cccc(C(=O)N[C@H]3C[C@@H](C(=O)N[C@H](C)c4ccccc4)N(C(=O)[C@@H](NC(=O)[C@H](C)NC)C(C)(C)C)C3)c2)CC1C(=O)N[C@H](C)c1ccccc1` (stereo partly shown) [Compound 148], the IC50 stood at 0.622 µM.

Still in this assay, the particulars now being: HCC461, HCC461; Tables 15-18; read-out: IC50 (uM) in cell viability assay in HCC461.
With `CN[C@@H](C)C(=O)N[C@H](C(=O)N1CCC[C@H]1C(=O)NC1c2ccccc2-c2ccccc21)[C@@H](C)OCC#CC#CCO[C@H](C)[C@H](NC(=O)[C@H](C)NC)C(=O)N1CCC[C@H]1C(=O)NC1c2ccccc2-c2ccccc21` [Compound P2-15], the IC50 came to 0.07 µM.

As for `CN[C@@H](C)C(=O)N[C@H](C(=O)N1CCC[C@H]1C(=O)N[C@H](CNC(=O)c1cc(N)cc(C(=O)NC[C@@H](NC(=O)[C@@H]2CCCN2C(=O)[C@@H](NC(=O)[C@H](C)NC)C(C)(C)C)C2CCCCC2)c1)C1CCCCC1)C(C)(C)C` [Compound P4-9], the 50% inhibitory concentration (IC50) is 0.53 µM.

For the compound `CN[C@@H](C)C(=O)N[C@@H](CCNC(=O)c1cccc(C(=O)NCC[C@H](NC(=O)[C@H](C)NC)C(=O)N2CCC[C@H]2C(=O)N[C@@H]2CCCc3ccccc32)c1)C(=O)N1CCC[C@H]1C(=O)N[C@@H]1CCCc2ccccc21` [Compound P2-26], the IC50 amounted to 0.08 µM.

With `CN[C@@H](C)C(=O)N[C@@H](CCCCNC(=O)c1cc(N)cc(C(=O)NCCCC[C@H](NC(=O)[C@H](C)NC)C(=O)N2CCC[C@H]2C(=O)N[C@@H]2CCCc3ccccc32)c1)C(=O)N1CCC[C@H]1C(=O)N[C@@H]1CCCc2ccccc21` [Compound P2-24], the concentration for half-maximal inhibition (IC50) amounted to 0.121 µM.

With `CN[C@@H](C)C(=O)N[C@@H](CCNC(=O)c1cc(C(=O)NCC[C@H](NC(=O)[C@H](C)NC)C(=O)N2CCC[C@H]2C(=O)N[C@@H]2CCCc3ccccc32)[nH]n1)C(=O)N1CCC[C@H]1C(=O)N[C@@H]1CCCc2ccccc21` [Compound P2-28], the IC50 stood at 0.163 µM.

Turning to `CN[C@@H](C)C(=O)N[C@H](C(=O)N1CCC[C@H]1C(=O)N[C@H](CNC(=O)[C@H]1CC[C@@](C)(C(=O)NC[C@@H](NC(=O)[C@@H]2CCCN2C(=O)[C@@H](NC(=O)[C@H](C)NC)C(C)(C)C)c2ccccc2)C1(C)C)c1ccccc1)C(C)(C)C` [Compound P4-15], the IC50 came to 0.085 µM.

For the compound `CN[C@@H](C)C(=O)N[C@@H](Cc1ccc(O[C@H]2C[C@@H](C(=O)N[C@@H]3CCCc4ccccc43)N(C(=O)[C@@H](NC(=O)[C@H](C)NC)C(C)(C)C)C2)cc1)C(=O)N1CCCC1` [Compound H-3], the IC50 was found to be 0.088 µM.

Take `CN[C@@H](C)C(=O)N[C@@H](CCCCCC[C@H](NC(=O)[C@H](C)NC)C(=O)N1CCC[C@H]1C(=O)N(C)Cc1ccccc1)C(=O)N1CCC[C@H]1C(=O)N(C)Cc1ccccc1` [Compound P2-4]: the IC50 stood at 0.037 µM.

Staying with this assay, now noted: HCC461, HCC461 cells, compound alone; read-out: IC50 (uM) in cell viability assay in HCC461.
Consider `CN[C@@H](C)C(=O)N[C@H](C(=O)N1C[C@@H](NC(=O)CCCCCCC(=O)N[C@H]2C[C@@H](C(=O)N[C@@H]3CCCc4ccccc43)N(C(=O)[C@@H](NC(=O)[C@H](C)NC)C(C)(C)C)C2)C[C@H]1C(=O)N[C@@H]1CCCc2ccccc21)C(C)(C)C` [Compound P3-85], for which the IC50 stood at 0.099 µM.

For `CN[C@@H](C)C(=O)N[C@H](C(=O)N1C[C@@H](NC(=O)c2cc(N)cc(C(=O)N[C@H]3C[C@@H](C(=O)N[C@H](C)c4ccccc4)N(C(=O)[C@@H](NC(=O)[C@H](C)NC)C(C)C)C3)c2)C[C@H]1C(=O)N[C@H](C)c1ccccc1)C(C)C` [Compound P3-81], the IC50 amounted to 0.058 µM.

As for `CN[C@@H](C)C(=O)N[C@H](C(=O)N1C[C@@H](NC(=O)c2cccc(C(=O)N[C@H]3C[C@@H](C(=O)N(C)Cc4ccccc4)N(C(=O)[C@@H](NC(=O)[C@H](C)NC)C(C)(C)C)C3)c2)C[C@H]1C(=O)N(C)Cc1ccccc1)C(C)(C)C` [Compound P3-49], the concentration for half-maximal inhibition (IC50) came to 0.141 µM.

On to `CC[C@H](C)[C@H](NC(=O)[C@H](C)NC)C(=O)N1C[C@@H](NC(=O)c2cc(C(=O)N[C@H]3C[C@@H](C(=O)N[C@H](C)c4ccccc4)N(C(=O)[C@@H](NC(=O)[C@H](C)NC)[C@@H](C)CC)C3)[nH]n2)C[C@H]1C(=O)N[C@H](C)c1ccccc1` [Compound P3-69], for which the IC50 was 0.017 µM.

Take `CN[C@@H](C)C(=O)N[C@H](C(=O)N1C[C@@H](NC(=O)c2cc(N)cc(C(=O)N[C@H]3C[C@@H](C(=O)NC4c5ccccc5-c5ccccc54)N(C(=O)[C@@H](NC(=O)[C@H](C)NC)C(C)(C)C)C3)c2)C[C@H]1C(=O)NC1c2ccccc2-c2ccccc21)C(C)(C)C` [Compound P3-61]: the IC50 stood at 0.02 µM.

Consider `CN[C@@H](C)C(=O)N[C@H](C(=O)N1C[C@@H](NC(=O)C(O)CC(=O)N[C@H]2C[C@@H](C(=O)NC3CCCc4ccccc43)N(C(=O)[C@@H](NC(=O)[C@H](C)NC)C(C)(C)C)C2)CC1C(=O)N[C@@H]1CCCc2ccccc21)C(C)(C)C` (stereo partly shown) [Compound P3-84], for which the IC50 was found to be 0.1 µM.

Consider `CN[C@@H](C)C(=O)N[C@H]1CC#CC#CC[C@H](NC(=O)[C@H](C)NC)C(C)N2C[C@H](C[C@H]2C(=O)N[C@@H]2CCCc3ccccc32)NC(=O)c2ccc(cc2)C(=O)N[C@H]2C[C@@H](C(=O)N[C@@H]3CCCc4ccccc43)N(C2)C1C` (stereo partly shown) [Compound P3-8], for which the IC50 turned out to be 0.081 µM.

As to `CN[C@@H](C)C(=O)N[C@H](C(=O)N1C[C@@H](NC(=O)c2cc(C(=O)N[C@H]3C[C@@H](C(=O)NC(c4ccccc4)c4ccccc4)N(C(=O)[C@@H](NC(=O)[C@H](C)NC)C(C)(C)C)C3)[nH]n2)C[C@H]1C(=O)NC(c1ccccc1)c1ccccc1)C(C)(C)C` [Compound P3-64], the half-maximal inhibitory concentration (IC50) came out at 0.008 µM.

Regarding `CN[C@@H](C)C(=O)N[C@H](C(=O)N1C[C@@H](NC(=O)/C=C/C(=O)N[C@H]2C[C@@H](C(=O)N[C@H](C)c3ccccc3)N(C(=O)[C@@H](NC(=O)[C@H](C)NC)C(C)(C)C)C2)C[C@H]1C(=O)N[C@H](C)c1ccccc1)C(C)(C)C` [Compound P3-75], the IC50 was found to be 0.057 µM.

On to `CN[C@@H](C)C(=O)N[C@H](C(=O)N1C[C@@H](NC(=O)c2cccnc2-c2ncccc2C(=O)N[C@H]2C[C@@H](C(=O)NC3CCCc4ccccc43)N(C(=O)[C@@H](NC(=O)[C@H](C)NC)C(C)(C)C)C2)CC1C(=O)N[C@@H]1CCCc2ccccc21)C(C)(C)C` (stereo partly shown) [Compound P3-39], for which the IC50 worked out at 0.006 µM.

For the compound `CN[C@@H](C)C(=O)N[C@H](C(=O)N1C[C@@H](NC(=O)c2ccc(-c3ccc(C(=O)N[C@H]4C[C@@H](C(=O)N[C@@H]5CCCc6ccccc65)N(C(=O)[C@@H](NC(=O)[C@H](C)NC)C(C)(C)C)C4)cc3)cc2)C[C@H]1C(=O)N[C@@H]1CCCc2ccccc21)C(C)(C)C` [Compound P3-37], the concentration for half-maximal inhibition (IC50) amounted to 0.008 µM.

The assay is the same for the next values; noted with them: HCC461; Tables 6-9; read-out: IC50 (μM) in cell viability assay in HCC461.
Turning to `CN[C@@H](C)C(=O)N[C@@H](CCC(=O)N[C@H]1CC(C(=O)N[C@@H]2CCc3ccccc3C2)N(C(=O)[C@@H](NC(=O)[C@H](C)NC)C(C)(C)C)C1)C(=O)N[C@H](C(=O)N[C@@H](C)C(C)C)C(C)(C)C` (stereo partly shown) [Compound 163], the IC50 was more than 30 µM.

The assay is the same for the next values; noted with them: HCC461; Tables 15-18; read-out: IC50 (uM) in cell viability assay in HCC461.
Take `CN[C@@H](C)C(=O)N[C@@H](CCCCCC[C@H](NC(=O)[C@H](C)NC)C(=O)N1C[C@@H](NC(=O)c2ccccc2)C[C@H]1C(=O)N[C@@H]1CCCc2ccccc21)C(=O)N1C[C@@H](NC(=O)c2ccccc2)C[C@H]1C(=O)N[C@@H]1CCCc2ccccc21` [Compound P2-13]: the concentration for half-maximal inhibition (IC50) is 0.168 µM.

On to `CC[C@H](NC)C(=O)N[C@@H](CC#CC#CC[C@H](NC(=O)[C@H](CC)NC)C(=O)N1CCC[C@H]1C(=O)N[C@@H]1CCCc2ccccc21)C(=O)N1CCC[C@H]1C(=O)N[C@@H]1CCCc2ccccc21` [Compound P2-8], for which the 50% inhibitory concentration (IC50) was determined as 0.009 µM.

Staying with this assay, now noted: HCC461 cells, compound alone; read-out: IC50 (uM) in cell viability assay in HCC461.
Consider `CN[C@@H](C)C(=O)N[C@H](C(=O)N1C[C@@H](NC(=O)c2cccc(C(=O)N[C@H]3C[C@@H](C(=O)NC4CCCC5CCCCC54)N(C(=O)[C@@H](NC(=O)[C@H](C)NC)C(C)(C)C)C3)c2)C[C@H]1C(=O)NC1CCCC2CCCCC21)C(C)(C)C` (stereo partly shown) [Compound P3-60], for which the concentration for half-maximal inhibition (IC50) amounted to 0.311 µM.

A word on the IC50: it is the concentration needed to halve the response being measured.

For the origin of these results see US20130344026A1, “Dimeric Smac Mimetics” (priority 2009, published 2013).
